From US6828315B1, “1-Amino triazoloc4,3-a! quinazoline-5-ones and/or -5-thiones inhibiting phosphodiesterase IV” (Warner-Lambert LLC, priority 1999, dated 2004) come the findings set out here.

SMILES strings stand for the structures.

Broadly, the melting point is the temperature of the solid-liquid transition. The compound `COc1cc(Cn2nc(N3CCCC3)n3c4ccc(Br)cc4c(=O)nc23)cc(OC)c1OC` [Compound 151, 7-bromo-1-(pyrrolidin-1-yl)-3-(3,4,5-trimethoxybenzyl)-3H-[1,2,4]triazolo[4,3-a]quinazolin-5-one] showed a melting point of 199 to 201 °C.
The value for `O=c1c2cc(Br)ccc2n2c(N3CCCC3)nnc2n1CCSc1ccccc1` [Compound 72, 7-Bromo-4-(2-phenylsulfenyl-ethyl)-1-pyrrolidin-1-yl-4H-[1,2,4]triazolo[4,3-a]quinazolin-5-one] was 122 °C; that for `O=c1nc2n(C/C=C/c3ccccc3)nc(N3CCCCCC3)n2c2ccc(Br)cc12` [Compound 140, 1-Azepan-1-yl-7-bromo-3-((E)-3-phenyl-allyl)-3H-[1,2,4]triazolo(4,3-a]quinazolin-5-one] was 198 °C; that for `O=C(Cn1c(=O)c2cc(Cl)ccc2n2c(N3CCCCCC3)nnc12)c1ccc(Cl)cc1` [Compound 29, 1-(azepan-1-yl)-7-chloro-4[2-(4-chlorophenyl)-2-oxoethyl]-4H-[1,2,4]triazolo[4,3-a]quinazolin-5-one] was 190 °C.
As for `N#Cc1ccc(Cn2c(=O)c3cc(Br)ccc3n3c(N4CCCCC4)nnc23)cc1` [Compound 74, 4-(7-Bromo-5-oxo-1-piperidin-1-yl-5H-[1,2,4]triazolo[4,3-a]quinazolin-4-ylmethyl)-benzonitrile], the figure is 200 °C; as for `CN(C)c1nnc2n(CC=Cc3ccccc3)c(=O)c3cc(Br)ccc3n12` [Compound 86, 7-Bromo-1-dimethylamino-4-(3-phenyl-allyl)-4H-[1,2,4]triazolo[4,3-a]quinazolin-5-one], 167 °C; as for `O=c1c2cc(Cl)ccc2n2c(N3CCCCCC3)nnc2n1Cc1ccccn1` [Compound 21, 1-(azepan-1-yl)-7-chloro-4-(2-pyridylmethyl)-4H-[1,2,4]triazolo[4,3-a]quinazolin-5-one], 152 °C.
The value for `COc1cc(Cn2nc(N3CCCC3)n3c4ccc(Br)cc4c(=O)nc23)cc(OC)c1` [Compound 150, 7-bromo-3-(3,5-dimethoxy-benzyl)-1-(pyrrolidin-1-yl)-3H-[1,2,4]triazolo-[4,3-a]quinazolin-5-one] was 168 °C; that for `Cn1c(=O)c2cc(I)ccc2n2c(N3CCCCCC3)nnc12` [Compound 213, 1-(azepan-1-yl)-7-iodo-4-methyl-4H-[1,2,4]triazolo[4,3-a]-quinazolin-5-one] was 206 °C.
In the case of `O=c1c2cc(Br)ccc2n2c(N3CCSCC3)nnc2n1Cc1ccccc1` [Compound 181, 4-Benzyl-7-bromo-1-thiomorpholin-4-yl-4H-[1,2,4]triazolo[4,3-a]quinazolin-5-one], the melting point was found to be 235 °C.
On to `O=c1c2cc(O)ccc2n2c(N3CCCC3)nnc2n1C/C=C/c1ccccc1` [Compound 108, 7-Hydroxy-4-((E)-3-phenyl-allyl)-1-pyrrolidin-1-yl-4H-[1,2,4]triazolo[4,3-a]quinazolin-5-one], for which the melting point was 295 °C (dec.).
As for `O=c1nc2n(Cc3ccc(Cl)c(Cl)c3)nc(N3CCCCCC3)n2c2ccc(Cl)cc12` [Compound 123, 1-(azepan-1-yl)-7-chloro-3-(3,4-dichlorobenzyl)-3H-[1,2,4]triazolo[4,3-a]quinazolin-5-one], the figure is 212 °C; as for `O=c1c2cc(Br)ccc2n2c(N3CC=CC3)nnc2n1Cc1ccccc1` [Compound 186, 4-Benzyl-7-bromo-1-(2,5-dihydro-pyrrol-1-yl)-4H-[1,2,4]triazolo[4,3-a]quinazolin-5-one], 210 °C.
In the case of `COC(=O)c1cc(C(=O)Cn2nc(N3CCCCCC3)n3c4ccc(Cl)cc4c(=O)nc23)ccc1OC` [Compound 133, 5-[(1-(azepan-1-yl)-7-chloro-5-oxo-5H-[1,2,4]triazolo[4,3-a]-quinazolin-3-yl)acetyl]-2-methoxybenzoic acid methyl ester], the melting point was found to be 136 °C.
As for `O=c1nc2n(Cc3ccc(Br)cc3)nc(N3CCCCCC3)n2c2ccc(Cl)cc12` [Compound 116, 1-(azepan-1-yl)-7-chloro-3-(4-bromobenzyl)-3H-[1,2,4]triazolo(4,3-a]quinazolin-5-one], the figure is 244 °C.
The value for `COc1ccccc1Cn1nc(N2CCCCCC2)n2c3ccc(Cl)cc3c(=O)nc12` [Compound 120, 1-(azepan-1-yl)-7-chloro-3-(2-methoxybenzyl)-3H-[1,2,4]triazolo[4,3-a]quinazolin-5-one] was 184 °C; that for `O=c1nc2n(Cc3ccc(Cl)cc3)nc(N3CCCCCC3)n2c2ccc(Br)cc12` [Compound 134, 1-(azepan-1-yl)-7-bromo-3-(4-chlorobenzyl)-3H-[1,2,4]triazolo[4,3-a]quinazolin-5-one] was 247 °C; that for `O=c1c2cc(Cl)ccc2n2c(N3CCCCCC3)nnc2n1Cc1ccccc1` [Compound 172, 1-(azepan-1-yl)-4-benzyl-7-chloro-4H-[1,2,4]triazolo[4,3-a]-quinazolin-5-one] was 162 °C.
As to `O=c1c2cc(Cl)ccc2n2c(N3CCCCCC3)nnc2n1Cc1ccncc1` [Compound 23, 1-(azepan-1-yl)-7-chloro-4-(4-pyridylmethyl)-4H-[1,2,4]triazolo[4,3-a]quinazolin-5-one], the melting point was 137 °C.
On to `Cn1c(=O)c2cc(Cl)ccc2n2c(N3CC4CCC(C)(C3)C4(C)C)nnc12` (stereo not shown) [Compound 170, 7-Chloro-4-methyl-1-(1,8,8-trimethyl-3-aza-bicyclo[3.2.1]oct-3-yl)-4H-[1,2,4]triazolo[4,3-a]quinazolin-5-one], for which the melting point is 185 °C.
Take `Cn1c(=O)c2c(Cl)cccc2n2c(N3CCCCCC3)nnc12` [Compound 202, 1-(azepan-1-yl)-6-chloro-4-methyl-4H-[1,2,4]triazolo[4,3-a]-quinazolin-5-one]: the melting point was > 275 °C.
As for `COc1ccc(Cn2c(=O)c3cc(Cl)ccc3n3c(N4CCCCCC4)nnc23)cc1` [Compound 18, 1-(azepan-1-yl)-7-chloro-4-(4-methoxybenzyl)-4H-[1,2,4]triazolo[4,3-a]quinazolin-5-one], the figure is 138 °C; as for `COc1ccc2c(c1)c(=O)n(Cc1ccccc1)c1nnc(N3CCCCCC3)n21` [Compound 195, 1-Azepan-1-yl-4-benzyl-7-methoxy-4H-[1,2,4]triazolo[4,3-a]quinazolin-5-one], 153 °C.
With `Cc1ccc(Cn2nc(N3CCCCCC3)n3c4ccc(Cl)cc4c(=O)nc23)cc1` [Compound 112, 1-Azepan-1-yl-7-chloro-3-(4-methyl-benzyl)-3H-[1,2,4]triazolo[4,3-a]quinazolin-5-one], the melting point stood at 182 °C.
As for `O=c1nc2n(CC=Cc3ccccc3)nc(N3CCCC3)n2c2ccc(O)cc12` [Compound 161, 7-hydroxy-3-(3-phenylallyl)-1-(pyrrolidin-1-yl)-3H-[1,2,4]triazolo[4,3-a]quinazolin-5-one], the figure is 255 °C.
As for `O=c1nc2n(Cc3ccc(F)cc3)nc(N3CCCC3)n2c2ccc(Br)cc12` [Compound 143, 7-bromo-3-(4-fluorobenzyl)-1-(pyrrolidin-1-yl)-3H-[1,2,4]triazolo[4,3-a]quinazolin-5-one], the figure is 233 °C; as for `COc1ccc2c(c1)c(=O)n(Cc1ccccc1)c1nnc(N3CCCC3)n21` [Compound 196, 4-Benzyl-7-methoxy-1-pyrrolidin-1-yl-4H-[1,2,4]triazolo[4,3-a]quinazolin-5-one], 154 °C.
As for `O=c1c2cc(Br)ccc2n2c(N3CCOCC3)nnc2n1Cc1ccccc1` [Compound 180, 4-Benzyl-7-bromo-1-morpholin-4-yl-4H-[1,2,4]triazolo[4,3-a]quinazolin-5-one], the figure is 189 °C; as for `Cn1c(=O)c2cc(Br)ccc2n2c(N3CCCCCC3)nnc12` [Compound 177, 1-(azepan-1-yl)-7-bromo-4-methyl-4H-[1,2,4]triazolo[4,3-a]-quinazolin-5-one], 174 °C.
In the case of `CN(C)c1nnc2n(Cc3ccc(C#N)cc3)c(=S)c3cc(Br)ccc3n12` [Compound 245, 4-(7-Bromo-1-dimethylamino-5-thioxo-5H-[1,2,4]triazolo[4,3-a]quinazolin-4-ylmethyl)-benzonitrile], the melting point is 276 °C.
As for `C#CCn1c(=O)c2cc(Br)ccc2n2c(N3CCCC3)nnc12` [Compound 70, 7-Bromo-4-prop-2-ynyl-1-pyrrolidin-1-yl-4H-[1,2,4]triazolo[4,3-a]quinazolin-5-one], the figure is 204 °C.
The value for `O=c1c2cc(Br)ccc2n2c(N3CCN(c4ccccc4)CC3)nnc2n1Cc1ccccc1` [Compound 183, 4-Benzyl-7-bromo-1-(4-phenyl-piperazin-1-yl)-4H-[1,2,4]triazolo[4,3-a]quinazolin-5-one] was 238 °C.
In turn, `CCCCn1c(=O)c2cc(Br)ccc2n2c(N3CCCC3)nnc12` [Compound 66, 7-Bromo-4-butyl-1-pyrrolidin-1-yl-4H-[1,2,4]triazolo[4,3-a]quinazolin-5-one] gave a melting point of 135 °C.
In turn, `COC(=O)C(c1ccccc1)n1c(=O)c2cc(Br)ccc2n2c(N3CCCC3)nnc12` (stereo not shown) [Compound 73, (7-Bromo-5-oxo-1-pyrrolidin-1-yl-5H-[1,2,4]triazolo[4,3-a]quinazolin-4-yl)-phenyl-acetic acid methyl ester] registered a melting point of 184 °C.
In turn, `O=c1c2cc(Cl)ccc2n2c(N3CCCCCC3)nnc2n1Cc1ccc(C(F)(F)F)cc1` [Compound 14, 1-(azepan-1-yl)-7chloro-4-(4-(trifluoromethyl)benzyl)-4H-[1,2,4]triazolo[4,3-a]quinazolin-5-one] registered a melting point of 138 °C.
`O=c1c2cc(Br)ccc2n2c(N3CCCCC3)nnc2n1Cc1ccccc1` [Compound 178, 4-benzyl-7-bromo-1-(piperidin-1-yl)-4H-[1,2,4]triazolo[4,3-a]-quinazolin-5-one] yielded a melting point of 183 to 185 °C.
The value for `Cn1c(=O)c2cc(Cl)ccc2n2c(N3CCOCC3)nnc12` [Compound 206, 7-chloro-4-methyl-1-(morpholin-4-yl)-4H-[1,2,4]triazolo[4,3-a]-quinazolin-5-one] was 232 °C.
